Source: ChEMBL document CHEMBL3860068, “Class II Phosphoinositide 3-Kinases as Novel Drug Targets” (J Med Chem, 2017)
One block for each compound: values may come before it.

How the values were obtained:
[1] = Inhibition of class 1 PI3K (unknown origin); parameters: species or system Homo sapiens
[2] = Inhibition of class 4 PI3K (unknown origin); parameters: species or system Homo sapiens
[3] = molecular target: T1, Phosphatidylinositol 3-kinase catalytic subunit type 3 (Homo sapiens, UniProt Q8NEB9); experiment: Inhibition of full length human recombinant VPS34 (unknown origin) using phosphatidylinositol and gamma-32P-ATP incubated for 20 mins by TLC assay or high-throughput membrane capture assay
[4] = molecular target: T2, Phosphatidylinositol 3-kinase C2 domain-containing subunit gamma (Homo sapiens, UniProt O75747); experiment: Inhibition of PI3KC2gamma (unknown origin)
T2 sequence (O75747 whole entry): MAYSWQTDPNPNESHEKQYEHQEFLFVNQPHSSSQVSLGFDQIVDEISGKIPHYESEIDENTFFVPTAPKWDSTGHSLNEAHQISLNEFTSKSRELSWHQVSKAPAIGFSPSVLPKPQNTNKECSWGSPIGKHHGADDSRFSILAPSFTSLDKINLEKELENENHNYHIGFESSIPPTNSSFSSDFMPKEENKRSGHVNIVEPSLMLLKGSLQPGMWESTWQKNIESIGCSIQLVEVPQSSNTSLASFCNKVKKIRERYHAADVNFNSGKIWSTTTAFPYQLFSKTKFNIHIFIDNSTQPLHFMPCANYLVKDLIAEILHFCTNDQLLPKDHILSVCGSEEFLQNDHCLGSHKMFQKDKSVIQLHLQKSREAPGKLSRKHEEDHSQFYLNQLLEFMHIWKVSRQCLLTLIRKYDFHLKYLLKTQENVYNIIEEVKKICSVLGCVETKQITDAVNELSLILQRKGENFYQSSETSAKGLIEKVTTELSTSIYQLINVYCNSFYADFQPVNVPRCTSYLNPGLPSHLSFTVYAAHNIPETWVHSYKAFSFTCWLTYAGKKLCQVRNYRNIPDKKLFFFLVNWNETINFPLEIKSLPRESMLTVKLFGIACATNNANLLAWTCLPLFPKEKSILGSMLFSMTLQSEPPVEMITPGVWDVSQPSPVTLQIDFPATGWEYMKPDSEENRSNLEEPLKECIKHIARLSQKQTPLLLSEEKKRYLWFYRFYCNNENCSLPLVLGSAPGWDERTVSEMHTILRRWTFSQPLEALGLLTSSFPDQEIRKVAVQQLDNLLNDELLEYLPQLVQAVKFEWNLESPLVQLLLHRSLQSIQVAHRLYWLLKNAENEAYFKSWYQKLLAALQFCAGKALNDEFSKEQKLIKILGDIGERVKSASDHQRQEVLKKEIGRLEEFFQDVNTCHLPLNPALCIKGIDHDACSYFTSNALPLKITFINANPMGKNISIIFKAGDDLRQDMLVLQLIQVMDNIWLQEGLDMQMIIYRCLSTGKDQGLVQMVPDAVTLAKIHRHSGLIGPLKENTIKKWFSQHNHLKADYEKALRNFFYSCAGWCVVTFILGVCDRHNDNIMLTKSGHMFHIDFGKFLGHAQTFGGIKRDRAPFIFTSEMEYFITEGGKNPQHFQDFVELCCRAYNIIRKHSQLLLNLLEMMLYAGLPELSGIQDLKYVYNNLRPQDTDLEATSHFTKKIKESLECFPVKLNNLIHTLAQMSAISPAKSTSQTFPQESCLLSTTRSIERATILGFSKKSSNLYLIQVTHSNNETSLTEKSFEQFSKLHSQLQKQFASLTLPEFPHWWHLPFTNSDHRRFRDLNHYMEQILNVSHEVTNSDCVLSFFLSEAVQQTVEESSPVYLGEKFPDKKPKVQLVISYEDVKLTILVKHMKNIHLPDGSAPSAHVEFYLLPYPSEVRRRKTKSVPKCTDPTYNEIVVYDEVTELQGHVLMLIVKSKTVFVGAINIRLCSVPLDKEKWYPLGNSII

[5] = molecular target: T3, Phosphatidylinositol 4-phosphate 3-kinase C2 domain-containing subunit alpha (Homo sapiens, UniProt O00443); experiment: Inhibition of PI3KC2alpha (unknown origin)
[6] = molecular target: T4, Phosphatidylinositol 4-phosphate 3-kinase C2 domain-containing subunit beta (Homo sapiens, UniProt O00750); experiment: Inhibition of PI3KC2beta (unknown origin)
[7] = molecular target: Phosphatidylinositol 4,5-bisphosphate 3-kinase catalytic subunit gamma isoform (Homo sapiens, UniProt P48736); experiment: Inhibition of PI3Kgamma (unknown origin)
[8] = molecular target: T1, Phosphatidylinositol 3-kinase catalytic subunit type 3; experiment: Inhibition of human recombinant Vps34 using substrate PI incubated for 1 hr by Adapta kinase assay
[9] = molecular target: T5, DNA-dependent protein kinase catalytic subunit (Homo sapiens, UniProt P78527); experiment: Inhibition of DNA-PK (unknown origin)
[10] = molecular target: T3, Phosphatidylinositol 4-phosphate 3-kinase C2 domain-containing subunit alpha; experiment: Inhibition of PI3KC2alpha (unknown origin) expressed in HEK293 cells using phosphatidylinositol and gamma-32P-ATP incubated for 20 mins by TLC assay or high-throughput membrane capture assay; format: cell-based
[11] = molecular target: T4, Phosphatidylinositol 4-phosphate 3-kinase C2 domain-containing subunit beta; experiment: Inhibition of PI3KC2beta (unknown origin) expressed in HEK293 cells using phosphatidylinositol and gamma-32P-ATP incubated for 20 mins by TLC assay or high-throughput membrane capture assay; format: cell-based
[12] = molecular target: T3, Phosphatidylinositol 4-phosphate 3-kinase C2 domain-containing subunit alpha; experiment: Inhibition of human recombinant PI3KC2alpha using substrate PI incubated for 1 hr by Adapta kinase assay
[13] = molecular target: T4, Phosphatidylinositol 4-phosphate 3-kinase C2 domain-containing subunit beta; experiment: Inhibition of human recombinant PI3KC2beta using substrate PI incubated for 1 hr by Adapta kinase assay
[14] = molecular target: T5, DNA-dependent protein kinase catalytic subunit; experiment: Inhibition of human DNA-PK by luciferase-luciferin-coupled chemiluminescence assay
[15] = molecular target: T1, Phosphatidylinositol 3-kinase catalytic subunit type 3; experiment: Inhibition of N-terminal tagged full-length human VPS34 by luciferase-luciferin-coupled chemiluminescence assay

T1 sequence (Q8NEB9 whole entry, the tested form may be a part): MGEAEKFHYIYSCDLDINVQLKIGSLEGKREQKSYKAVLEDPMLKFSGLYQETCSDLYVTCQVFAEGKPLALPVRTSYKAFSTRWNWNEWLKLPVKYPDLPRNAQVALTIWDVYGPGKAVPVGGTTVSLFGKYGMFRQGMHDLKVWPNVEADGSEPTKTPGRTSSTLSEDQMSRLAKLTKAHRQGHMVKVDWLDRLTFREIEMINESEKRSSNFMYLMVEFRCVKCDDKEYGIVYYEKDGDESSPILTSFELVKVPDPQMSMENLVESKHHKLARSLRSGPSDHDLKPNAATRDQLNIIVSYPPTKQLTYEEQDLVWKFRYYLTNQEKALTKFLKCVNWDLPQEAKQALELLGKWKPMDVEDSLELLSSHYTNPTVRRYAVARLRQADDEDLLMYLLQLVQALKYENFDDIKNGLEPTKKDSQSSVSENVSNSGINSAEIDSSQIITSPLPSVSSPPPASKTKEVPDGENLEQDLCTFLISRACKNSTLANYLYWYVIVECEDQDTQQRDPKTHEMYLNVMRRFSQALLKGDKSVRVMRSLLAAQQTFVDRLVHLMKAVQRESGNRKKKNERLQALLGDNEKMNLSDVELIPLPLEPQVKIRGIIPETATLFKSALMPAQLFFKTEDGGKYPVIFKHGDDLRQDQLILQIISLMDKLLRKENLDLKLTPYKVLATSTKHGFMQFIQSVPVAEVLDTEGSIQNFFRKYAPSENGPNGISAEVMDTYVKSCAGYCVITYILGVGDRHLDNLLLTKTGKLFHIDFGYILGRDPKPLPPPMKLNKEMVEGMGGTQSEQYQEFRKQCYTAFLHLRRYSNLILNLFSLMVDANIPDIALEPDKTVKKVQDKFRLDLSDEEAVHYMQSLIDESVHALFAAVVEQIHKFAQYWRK
T3 sequence (O00443 whole entry, the tested form may be a part): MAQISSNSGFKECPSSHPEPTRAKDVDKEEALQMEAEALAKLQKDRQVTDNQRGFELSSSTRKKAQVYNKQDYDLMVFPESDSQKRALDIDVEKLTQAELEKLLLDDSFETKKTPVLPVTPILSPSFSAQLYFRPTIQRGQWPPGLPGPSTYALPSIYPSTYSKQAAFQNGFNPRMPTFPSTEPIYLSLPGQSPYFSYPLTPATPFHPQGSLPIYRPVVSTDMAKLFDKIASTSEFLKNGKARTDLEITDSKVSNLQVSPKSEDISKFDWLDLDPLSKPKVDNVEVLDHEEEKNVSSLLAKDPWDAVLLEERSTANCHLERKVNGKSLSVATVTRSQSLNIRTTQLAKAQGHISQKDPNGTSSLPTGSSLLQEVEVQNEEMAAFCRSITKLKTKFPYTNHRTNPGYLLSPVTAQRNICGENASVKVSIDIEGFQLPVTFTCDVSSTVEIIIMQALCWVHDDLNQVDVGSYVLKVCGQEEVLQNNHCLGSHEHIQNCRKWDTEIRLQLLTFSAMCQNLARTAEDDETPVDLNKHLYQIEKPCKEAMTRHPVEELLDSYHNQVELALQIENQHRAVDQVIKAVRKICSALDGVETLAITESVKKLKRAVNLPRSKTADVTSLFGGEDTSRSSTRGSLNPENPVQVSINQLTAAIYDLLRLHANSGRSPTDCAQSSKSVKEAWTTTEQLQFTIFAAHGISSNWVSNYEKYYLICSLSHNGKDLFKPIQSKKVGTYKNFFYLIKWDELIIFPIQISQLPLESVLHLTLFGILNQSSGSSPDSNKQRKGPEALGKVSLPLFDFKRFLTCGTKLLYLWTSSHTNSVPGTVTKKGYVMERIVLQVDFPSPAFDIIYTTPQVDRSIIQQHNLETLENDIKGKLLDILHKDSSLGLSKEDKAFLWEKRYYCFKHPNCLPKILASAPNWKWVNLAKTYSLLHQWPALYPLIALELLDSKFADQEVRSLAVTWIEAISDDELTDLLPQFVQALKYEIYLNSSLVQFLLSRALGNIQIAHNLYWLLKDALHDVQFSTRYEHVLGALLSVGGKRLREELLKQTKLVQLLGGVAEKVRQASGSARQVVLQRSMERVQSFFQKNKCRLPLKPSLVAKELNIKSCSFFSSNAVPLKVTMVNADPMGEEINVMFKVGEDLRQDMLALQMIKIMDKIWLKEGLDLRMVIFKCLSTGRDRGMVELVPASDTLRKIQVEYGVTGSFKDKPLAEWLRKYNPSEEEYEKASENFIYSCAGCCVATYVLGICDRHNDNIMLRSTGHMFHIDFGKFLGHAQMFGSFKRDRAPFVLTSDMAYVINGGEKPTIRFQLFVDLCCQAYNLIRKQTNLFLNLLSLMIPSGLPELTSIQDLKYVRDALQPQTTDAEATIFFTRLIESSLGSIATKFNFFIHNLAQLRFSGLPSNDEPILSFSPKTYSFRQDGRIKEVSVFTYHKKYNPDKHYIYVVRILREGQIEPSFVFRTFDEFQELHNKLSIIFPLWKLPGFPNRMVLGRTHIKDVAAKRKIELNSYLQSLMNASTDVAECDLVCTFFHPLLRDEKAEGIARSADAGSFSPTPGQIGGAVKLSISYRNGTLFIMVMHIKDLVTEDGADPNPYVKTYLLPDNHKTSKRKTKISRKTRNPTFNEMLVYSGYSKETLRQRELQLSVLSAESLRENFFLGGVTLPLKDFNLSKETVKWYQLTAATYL
T4 sequence (O00750 whole entry, the tested form may be a part, canonical isoform): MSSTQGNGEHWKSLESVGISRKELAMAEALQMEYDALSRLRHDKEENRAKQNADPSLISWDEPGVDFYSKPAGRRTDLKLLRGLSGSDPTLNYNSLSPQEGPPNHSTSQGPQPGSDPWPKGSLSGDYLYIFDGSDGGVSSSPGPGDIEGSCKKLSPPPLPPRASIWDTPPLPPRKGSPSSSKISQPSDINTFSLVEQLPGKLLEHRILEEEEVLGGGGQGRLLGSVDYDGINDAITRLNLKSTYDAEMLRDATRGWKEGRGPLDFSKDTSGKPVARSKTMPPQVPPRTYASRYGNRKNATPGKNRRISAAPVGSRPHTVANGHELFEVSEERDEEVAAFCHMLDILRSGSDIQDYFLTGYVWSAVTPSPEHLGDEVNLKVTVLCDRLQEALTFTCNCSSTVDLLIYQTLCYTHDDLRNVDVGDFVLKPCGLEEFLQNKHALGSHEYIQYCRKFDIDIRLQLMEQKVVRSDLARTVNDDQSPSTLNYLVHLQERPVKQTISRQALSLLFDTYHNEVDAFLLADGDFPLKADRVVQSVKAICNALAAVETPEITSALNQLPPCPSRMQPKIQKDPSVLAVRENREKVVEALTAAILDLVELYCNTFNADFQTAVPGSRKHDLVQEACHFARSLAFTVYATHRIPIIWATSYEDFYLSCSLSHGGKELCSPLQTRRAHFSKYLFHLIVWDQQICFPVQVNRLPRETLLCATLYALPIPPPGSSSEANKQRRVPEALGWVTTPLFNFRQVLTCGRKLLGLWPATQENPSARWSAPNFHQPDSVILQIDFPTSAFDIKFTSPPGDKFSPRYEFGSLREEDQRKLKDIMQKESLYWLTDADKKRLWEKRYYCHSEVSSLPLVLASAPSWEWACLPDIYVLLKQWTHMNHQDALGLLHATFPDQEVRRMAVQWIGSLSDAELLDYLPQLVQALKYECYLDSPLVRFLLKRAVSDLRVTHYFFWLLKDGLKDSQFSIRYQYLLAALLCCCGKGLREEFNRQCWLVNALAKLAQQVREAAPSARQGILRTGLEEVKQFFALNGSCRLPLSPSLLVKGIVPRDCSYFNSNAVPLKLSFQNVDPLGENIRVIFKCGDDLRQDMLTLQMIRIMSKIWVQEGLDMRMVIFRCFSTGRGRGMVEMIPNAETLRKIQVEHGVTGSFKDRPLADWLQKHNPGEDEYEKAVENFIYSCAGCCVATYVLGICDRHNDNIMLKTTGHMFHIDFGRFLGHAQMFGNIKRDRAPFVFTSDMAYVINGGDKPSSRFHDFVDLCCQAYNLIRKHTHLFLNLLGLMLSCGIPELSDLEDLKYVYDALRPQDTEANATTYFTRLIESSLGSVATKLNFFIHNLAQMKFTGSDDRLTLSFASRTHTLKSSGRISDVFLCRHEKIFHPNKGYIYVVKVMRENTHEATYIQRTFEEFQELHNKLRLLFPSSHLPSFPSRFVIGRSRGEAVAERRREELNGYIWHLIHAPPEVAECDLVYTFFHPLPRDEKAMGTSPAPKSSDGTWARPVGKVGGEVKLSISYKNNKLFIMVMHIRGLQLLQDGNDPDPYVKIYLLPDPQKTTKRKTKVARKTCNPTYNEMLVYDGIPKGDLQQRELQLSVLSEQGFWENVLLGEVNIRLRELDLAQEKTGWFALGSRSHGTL

Compound: CC(=O)Nc1ccc2nc(-c3cccc(NS(=O)(=O)c4ccc5ccccc5c4)c3)nc(N3CCOCC3)c2c1
IC50 [1]: > 10 µM | IC50 [2]: > 100 µM

Compound: C[C@@H]1COCCN1c1cc(=O)n2c(n1)N(Cc1cncc(Cl)c1)[C@H](C(F)(F)F)CC2
IC50 [4]: > 10 µM | IC50 [1]: > 10 µM | IC50 [5]: > 10 µM | IC50 [6]: > 10 µM | IC50 [2]: > 10 µM

Compound: CS(=O)(=O)N1CCN(Cc2cc3nc(-c4cccc5[nH]ncc45)nc(N4CCOCC4)c3s2)CC1 [PICTILISIB]
IC50 [5]: > 10 µM

Compound: Nc1ncc(-c2ccnc(Nc3ccncc3)n2)c(CC2CC2)n1
IC50 [2]: > 9.1 µM | IC50 [7]: 3 µM

Compound: O=C1NC(=S)S/C1=C\c1ccc2c(c1)N(Cc1ccc(F)c(Cl)c1)C(=O)CO2
IC50 [9]: 1.5 µM | IC50 [10]: 0.14 µM | IC50 [11]: 0.37 µM | IC50 [3]: 10 µM

Compound: COc1ccc(Cl)c(Nc2nc3ccccc3nc2NS(=O)(=O)c2cccc(NC(=O)C(C)(C)N)c2)c1 [PILARALISIB]
IC50 [14]: 4.8 µM | IC50 [15]: 7 µM

Compound: CC(C)(O)CNc1ncc(-c2ccnc(Nc3ccnc(Cl)c3)n2)c(CC2CC2)n1
IC50 [4]: > 10 µM | IC50 [1]: > 10 µM | IC50 [5]: > 10 µM | IC50 [6]: > 10 µM | IC50 [2]: > 1 µM

Compound: CC(=O)Nc1ccc2nc(-c3cccc(NS(=O)(=O)c4ccccc4)c3)nc(N3CCOCC3)c2c1
IC50 [1]: > 10 µM | IC50 [2]: > 100 µM

Further lines, results first:

IC50 [3]: 0.83 µM
Compound: COc1ccc2c(c1OC)N=C(NC(=O)c1cccnc1)N1CCN=C21

IC50 [8]: > 100 µM
Compound: FC(F)c1nc2ccccc2n1-c1nc(N2CCOCC2)nc(N2CCOCC2)n1 [ZSTK-474]

IC50 [12]: 0.034 µM | IC50 [8]: 0.45 µM | IC50 [13]: 0.044 µM
Compound: Cn1c(=O)n(-c2ccc(C(C)(C)C#N)cc2)c2c3cc(-c4cnc5ccccc5c4)ccc3ncc21 [DACTOLISIB]

IC50 [11]: 14 µM | IC50 [3]: 0.32 µM
Compound: CC(=O)Nc1nc(C)c(-c2ccc(Cl)c(S(=O)(=O)NCCO)c2)s1
